Measured values from article PMC4909201 (PLoS ONE, 2016).
Where two headings read alike, the source gives them in different places.

Experiments:
[1] = molecular target: T1, 125I-thrombin binding to γA/γA-fibrin clots (Homo sapiens, UniProt P00734); assay: 125I-thrombin binding to γA/γA-fibrin clots; conditions: for Ki: EC50 converted by Cheng-Prusoff with Kd of 125I-thrombin for fibrin, 10 nM 125I-thrombin, 3 μM γA/γA-fibrinogen
T1 construct: purchased Enzyme Research Laboratories (South Bend, IN)

[2] = molecular target: T2, thrombin binding to GpIbα269-286ppp (Homo sapiens, UniProt P00734); assay: SPR: effect of active site inhibitors on thrombin binding to immobilized GpIbα269-286ppp; conditions: for increase in affinity of thrombin for GpIbα269-286ppp: 2.5 μM inhibitor vs no inhibitor, p < 0.001; for Change: difference between thrombin binding without inhibitor and at saturating inhibitor
T2 construct: purchased Enzyme Research Laboratories (South Bend, IN)
Method: Between runs, flow cells were regenerated with 1 M NaCl for 30 s. […] EC50 values were determined as above. […] Binding affinities were calculated as described above.

[3] = molecular target: T3, 125I-thrombin binding to γA/γ′-fibrin clots (Homo sapiens, UniProt P00734); assay: 125I-thrombin binding to γA/γ′-fibrin clots; conditions: for Ki: EC50 converted by Cheng-Prusoff with Kd of 125I-thrombin for fibrin, 10 nM 125I-thrombin, 1 μM γA/γ′-fibrinogen
T3 construct: purchased Enzyme Research Laboratories (South Bend, IN)

[4] = molecular target: thrombin binding to immobilized factor Va (Homo sapiens, UniProt P00734); assay: SPR: effect of active site inhibitors on thrombin binding to immobilized factor Va
Method: (§1) Flows cells were then washed with 1 M ethanolamine for 420 s, followed by the running buffer composed of 20 mM HEPES, 150 mM NaCl, pH 7.4 (HBS) containing 0.01% Tween-80 (HBS-Tw) and 5 mM CaCl2.
(§2) Because of the fast on- and off-rates, all SPR experiments were performed at a flow rate of 25 μl/min [28]. Association times were 120 s and dissociation was monitored by washing the flow cells with HBS-Tw for 600 s. Between runs, flow cells were regenerated with a 45 s wash with HBS-Tw containing 0.5 M CaCl2.
(§3) The rapid approach to equilibrium at the low flow rate nullified any potential mass transport concerns. Nonspecific binding was accounted for by subtracting the control RU values obtained from the unmodified flow cell.

[5] = molecular target: thrombin binding to immobilized γA/γ′-fibrin (Homo sapiens, UniProt P00734); assay: SPR: effect of active site inhibitors on thrombin binding to immobilized γA/γ′-fibrin
Method: as §1, §2, §3

thrombin = thrombin inhibition; cited from earlier work
[6] = molecular target: thrombin binding to immobilized γA/γA-fibrin (Homo sapiens, UniProt P00734); assay: SPR: effect of active site inhibitors on thrombin binding to immobilized γA/γA-fibrin
Method: as §1, §2, §3

[7] = maximal change in percentage of bound 125I-thrombin vs no inhibitor
[8] = maximal change in percentage of bound 125I-thrombin vs no inhibitor, listed as argatroban
[9] = 0–5000 nM inhibitor, 250–500 nM thrombin
[10] = given as reduction (positive number)
[11] = maximal change in percentage of bound 125I-thrombin vs no inhibitor, listed as hirudin

**Q.** Which Change [1, 7] does the source give for `CC1CNc2c(cccc2S(=O)(=O)N[C@@H](CCCNC(=N)N)C(=O)N2CC[C@@H](C)C[C@@H]2C(=O)O)C1` (stereo partly shown) [Argatroban, argatroban] here?
**A.** +18.3 ± 5.0%

**Q.** What about the Change [1, 8] of the same compound?
**A.** 15–25%

**Q.** And the “increase in affinity of thrombin for GpIbα269-286ppp” value [2]?
**A.** 25–35%

**Q.** What about the Change [2] of the same compound?
**A.** +17.3 ± 0.6%

**Q.** What about the Change ([2]; listed as argatroban) of the same compound?
**A.** 17%

**Q.** What about the Change [3, 7] of the same compound?
**A.** +26.1 ± 0.4%

**Q.** What about the Change [3, 8] of the same compound?
**A.** 15–25%

**Q.** Which Ki [1] does the source give for `CCC1CCN(C(=O)C(CCCN=C(N)N)NS(=O)(=O)c2cccc3c(N(C)C)cccc23)CC1` (stereo not shown) [DAPA, dansylarginine N-(3-ethyl-1,5-pentanediyl)amide] here?
**A.** 2.1 ± 0.9 nM

**Q.** What about the EC50 [4, 9] of the same compound?
**A.** 565 ± 200 nM

**Q.** And the EC50 ([2]; 0–5000 nM inhibitor, 250 nM thrombin)?
**A.** 1290 ± 32.3 nM

**Q.** What about the “increase in affinity of thrombin for GpIbα269-286ppp” value [2] of the same compound?
**A.** 25–35%

**Q.** What about the EC50 [5, 9] of the same compound?
**A.** 516 ± 31 nM

**Q.** And the Ki (thrombin)?
**A.** 45 nM

**Q.** And the Ki [3]?
**A.** 19.6 ± 19.1 nM

**Q.** And the EC50 ([6]; 0–5000 nM inhibitor, 250–500 nM thrombin, Req vs inhibitor concentration)?
**A.** 514 ± 24 nM

**Q.** Which Change [1] does the source give for `[H]/N=C(/N)c1ccc(NCc2nc3cc(C(=O)N(CCC(=O)O)c4ccccn4)ccc3n2C)cc1` [Dabigatran, dabigatran] here?
**A.** -21.4 ± 3.3%

**Q.** And the “reduction of thrombin binding at saturation” value (“reduction of thrombin binding” for short) [4, 10]?
**A.** 37.9 ± 3.2%

**Q.** And the Change [2]?
**A.** 0%

**Q.** And the Change ([2]; listed as dabigatran)?
**A.** no effect

**Q.** And the “reduction of thrombin binding” value [5, 10]?
**A.** 28.4 ± 1.6%

**Q.** And the Change [3]?
**A.** -9.4 ± 1.4%

**Q.** What about the “reduction of thrombin binding” value [6, 10] of the same compound?
**A.** 47.6 ± 0.4%

**Q.** Which Ki [1] does the source give for Hirudin here?
**A.** 3.4 ± 0.3 nM

**Q.** And the Change [1, 7]?
**A.** -100%

**Q.** What about the Change [1, 11] of the same compound?
**A.** fully inhibited

**Q.** What about the Ki [3] of the same compound?
**A.** 3.4 ± 0.1 nM

**Q.** What about the Change [3, 7] of the same compound?
**A.** -100%

**Q.** And the Change [3, 11]?
**A.** fully inhibited
